# Where “and” joins values, the source holds several entries; their conditions need not be identical. Equal values may be shown once. Where a name gives a salt, the structure may show the parent alone.
# Tested on: influenza virus A/California/07/09 (H1N1) pdm09
# Set-up: species or system mice
# Conditions: mouse, in vivo
Structure (SMILES),Time after infection within which the drug must be administered for greatest efficacy,Mice rescued from infection,"Index of protection % (100 mg/kg/day, dihydrate)","AST (average life span of animals) (po, 100 mg/kg/day)","Mortality by day: 7 (po, 100 mg/kg/day)","Mortality by day: 8 (po, 100 mg/kg/day)","Mortality by day: 10 (po, 100 mg/kg/day)","Mortality, % (po, 100 mg/kg/day)"
CCOC(=O)C1=C[C@@H](OC(CC)CC)[C@H](NC(C)=O)[C@@H](N)C1 [Tamiflu],≤ 24 h,–,–,–,–,–,–,–
"CSc1nc2[nH]nc([N+](=O)[O-])c(=O)n2n1 [Triazavirin, sodium salt of 2-methylthio-6-nitro-1,2,4-triazolo[5,1-c]1,2,4-triazine-7-one, dihydrate]",–,80%,63% and 62.5%,13.7 cyr.,1,1,1,20.0%

# From patent publication US20190211024A1 (priority 2016, published 2019)
